The source of these data is patent US6133311A, “Method for preventing or treating elevated blood lipid level-related diseases by administering natural phenolic compounds” (priority 1998, dated 2000).

For the experiment, the target named is T1, ACAT (Rattus norvegicus, UniProt Q7TQM4).
T1 construct: microsomes were separated from liver tissues to be used as an enzyme source; from tissue; host or cells: rat liver microsomes
T1 sequence (Q7TQM4 1-524): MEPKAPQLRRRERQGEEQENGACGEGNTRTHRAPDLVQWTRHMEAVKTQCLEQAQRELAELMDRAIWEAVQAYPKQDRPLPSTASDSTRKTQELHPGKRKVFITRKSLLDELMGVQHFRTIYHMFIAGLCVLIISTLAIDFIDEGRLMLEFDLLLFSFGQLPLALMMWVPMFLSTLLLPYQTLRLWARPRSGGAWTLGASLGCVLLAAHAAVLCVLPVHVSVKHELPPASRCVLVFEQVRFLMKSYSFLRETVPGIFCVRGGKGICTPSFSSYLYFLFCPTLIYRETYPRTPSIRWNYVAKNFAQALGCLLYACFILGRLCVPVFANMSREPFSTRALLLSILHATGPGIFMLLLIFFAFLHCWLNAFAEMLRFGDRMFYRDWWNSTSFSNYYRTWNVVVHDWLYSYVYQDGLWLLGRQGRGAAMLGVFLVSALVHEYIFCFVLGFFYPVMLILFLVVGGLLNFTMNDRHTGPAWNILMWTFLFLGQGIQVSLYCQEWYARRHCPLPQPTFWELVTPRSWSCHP
Kind of experiment: ACAT inhibition in liver microsomes of fed rats. To be noted: liver microsomes of rats fed 0.1% compound, vs Control. Format: biochemical. How it is done: Activity of Tannin or gallic acid in ACAT Inhibition
To determine the effect of feeding tannin or gallic acid to rats on the activity of ACAT, microsomes were separated from liver tissues to be used as an enzyme source.
1 g each of the livers taken from each group of rats of Example 2 was homogenized in 5 ml of homogenization medium (0.1 M KH2 PO4, pH 7.4, 0.1 mM EDTA and 10 mM β-mercaptoethanol). The homogenate was centrifuged at 3,000xg for 15 min. at 4° C. and the supernatant thus obtained was centrifuged at 15,000xg for 15 min. at 4° C. to obtain a supernatant. The supernatant was put into an ultracentrifuge tube (Beckman) and centrifuged at 100,000 xg for 1 hour at 4° C. to obtain microsomal pellets, which were then suspended in 3 ml of the homogenization medium and centrifuged at 100,000 xg for 1 hour at 4° C. […] The protein concentration of the resulting suspension was determined by Lowry's method and then adjusted to 4 to 8 mg/ml. […]
200 μl of the resulting supernatant was put in a scintillation bottle and 4 ml of scintillation fluid (Lumac) was added thereto. The mixture was assayed for radioactivity with 1450 Microbeta liquid scintillation counter (Wallacoy, Finland). ACAT activity was calculated as picomoles of cholesteryl oleate synthesized per min. per mg protein (pmoles/min/mg protein) The result is shown in Table III.
Background: Liver microsomes are vesicles of endoplasmic reticulum, rich in cytochrome P450 enzymes.

Turning to `O=C(O)c1cc(O)c(O)c(O)c1` [Gallic acid, gallic acid], the “% Inhibition on ACAT activity” value was 42.1%.
As for tannin, the “% Inhibition on ACAT activity” value is on record as 41.7%.
